Measured values taken from patent US4703047A, “1-Cyclopropyl-1,4-dihydro-4-oxo-7-(4-(2-oxo-1,3-dioxol-4-yl- methyl)-1-piperazinyl)-3-quinolinecarboxylic acid antibacterial agents” (Bayer Aktiengesellschaft, priority 1985, dated 1987).
≈ marks a conversion by molar mass, not a printed value.

Experiments:
Assay in all cases: MIC, agar dilution test/Isosensitest agar
Conditions in all cases: unit assumed
[1] = system: E. coli Neumann; format: cell-based, Escherichia coli
Source text: (§1) |(agar dilution test/Isosensitest agar)

[2] = system: Klebsiella 8085; format: cell-based
Source text: as §1

[3] = system: Proteus vulgaris 1017; format: cell-based
Source text: as §1

[4] = system: Providencia 12012; format: cell-based
Source text: as §1

[5] = system: Pseudomonas Ellsworth; format: cell-based
Source text: as §1

[6] = system: Serratia 16040; format: cell-based
Source text: as §1

[7] = system: Staphylococcus FK 422; format: cell-based
Source text: as §1

[8] = system: Streptococcus 27101; format: cell-based
Source text: as §1

Cc1oc(=O)oc1CN1CCN(c2cc3c(cc2F)c(=O)c(C(=O)O)cn3C2CC2)CC1 [Example 1, 1-Cyclopropyl-6-fluoro-1,4-dihydro-7-[4-(5-methyl-2-oxo-1,3-dioxol-4-yl-methyl)-1-piperazinyl]-4-oxo-3-quinolinecarboxylic acid]
MIC [1]: ≤ 0.015 µg/mL | MIC [2]: ≤ 0.015 µg/mL | MIC [3]: ≤ 0.015 µg/mL | MIC [4]: 0.03 µg/mL (≈ 0.0677 µM) | MIC [5]: 0.06 µg/mL (≈ 0.135 µM) | MIC [6]: 8 µg/mL (≈ 18 µM) | MIC [7]: 0.25 µg/mL (≈ 0.564 µM) | MIC [8]: 0.5 µg/mL (≈ 1.13 µM)
